Experimental data published in ChEMBL document CHEMBL4602732, “Optimizing Pyrazolopyrimidine Inhibitors of Calcium Dependent Protein Kinase 1 for Treatment of Acute and Chronic Toxoplasmosis” (J Med Chem, 2020).

Tests used:
[1] = molecular target: Proto-oncogene tyrosine-protein kinase Src (Homo sapiens, UniProt P12931); test: Inhibition of human Src expressed in Escherichia coli BL21 using Abltide peptide as substrate incubated for 20 to 40 mins by ELISA
[2] = molecular target: Voltage-gated inwardly rectifying potassium channel KCNH2 (Homo sapiens, UniProt Q12809); test: Inhibition of human ERG expressed in CHOK1 cells by patch-clamp electrophysiology assay; assay type: cell-based, CHO-K1
Sequence of Voltage-gated inwardly rectifying potassium channel KCNH2 (Q12809 whole entry): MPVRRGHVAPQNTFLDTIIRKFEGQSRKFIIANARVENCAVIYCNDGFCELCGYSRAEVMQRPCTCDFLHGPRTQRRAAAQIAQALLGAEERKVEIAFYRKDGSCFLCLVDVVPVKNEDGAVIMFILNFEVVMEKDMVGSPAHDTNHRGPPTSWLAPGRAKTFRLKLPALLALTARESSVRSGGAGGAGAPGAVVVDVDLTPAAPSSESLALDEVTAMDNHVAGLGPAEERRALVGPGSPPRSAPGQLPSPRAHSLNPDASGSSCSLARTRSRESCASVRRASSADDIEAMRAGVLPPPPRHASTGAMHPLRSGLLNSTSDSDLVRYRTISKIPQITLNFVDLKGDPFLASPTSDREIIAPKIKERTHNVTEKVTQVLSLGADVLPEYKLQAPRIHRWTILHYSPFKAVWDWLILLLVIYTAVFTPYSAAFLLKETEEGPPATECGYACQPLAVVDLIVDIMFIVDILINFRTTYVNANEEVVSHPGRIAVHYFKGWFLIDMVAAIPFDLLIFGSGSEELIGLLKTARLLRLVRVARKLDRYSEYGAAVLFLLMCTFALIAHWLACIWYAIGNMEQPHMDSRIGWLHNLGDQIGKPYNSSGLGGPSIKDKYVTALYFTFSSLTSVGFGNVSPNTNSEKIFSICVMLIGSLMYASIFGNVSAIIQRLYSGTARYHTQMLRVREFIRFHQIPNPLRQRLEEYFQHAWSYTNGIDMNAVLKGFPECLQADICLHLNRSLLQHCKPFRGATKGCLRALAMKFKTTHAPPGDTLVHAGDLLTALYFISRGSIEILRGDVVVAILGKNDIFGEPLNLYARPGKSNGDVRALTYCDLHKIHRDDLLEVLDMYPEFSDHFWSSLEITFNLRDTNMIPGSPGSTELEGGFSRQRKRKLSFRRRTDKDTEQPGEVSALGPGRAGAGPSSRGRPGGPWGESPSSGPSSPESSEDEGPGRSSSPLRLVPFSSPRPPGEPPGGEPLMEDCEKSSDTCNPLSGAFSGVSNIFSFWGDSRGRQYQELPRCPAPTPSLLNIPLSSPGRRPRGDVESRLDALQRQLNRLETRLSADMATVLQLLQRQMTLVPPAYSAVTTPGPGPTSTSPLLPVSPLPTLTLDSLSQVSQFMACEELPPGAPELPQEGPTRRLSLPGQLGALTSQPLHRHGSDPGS

[3] = Cytotoxicity against human HepG2 cells assessed as cell growth at 20 uM measured after 72 hrs by cellTiter 96 AQueous non-radioactive cell proliferation assay relative to control; assay type: cell-based; conditions: read-out: Activity
[4] = Clearance in human hepatocytes assessed per million cells at 1 uM by LC-MS/MS analysis; assay type: ADME, cell-based, Hepatocyte
[5] = Half life in human liver microsomes at 10 uM preincubated for 10 mins followed by NADPH addition by LC-MS/MS analysis; assay type: ADME, Microsome; conditions: liver microsomes
LCK = LCK (Homo sapiens, UniProt P06239); test: Inhibition of wild-type human partial length LCK (R207 to P509 residues) expressed in bacterial expression system at 10 uM by Kinomescan method relative to control
Sequence of LCK (P06239 whole entry, the tested form may be a part): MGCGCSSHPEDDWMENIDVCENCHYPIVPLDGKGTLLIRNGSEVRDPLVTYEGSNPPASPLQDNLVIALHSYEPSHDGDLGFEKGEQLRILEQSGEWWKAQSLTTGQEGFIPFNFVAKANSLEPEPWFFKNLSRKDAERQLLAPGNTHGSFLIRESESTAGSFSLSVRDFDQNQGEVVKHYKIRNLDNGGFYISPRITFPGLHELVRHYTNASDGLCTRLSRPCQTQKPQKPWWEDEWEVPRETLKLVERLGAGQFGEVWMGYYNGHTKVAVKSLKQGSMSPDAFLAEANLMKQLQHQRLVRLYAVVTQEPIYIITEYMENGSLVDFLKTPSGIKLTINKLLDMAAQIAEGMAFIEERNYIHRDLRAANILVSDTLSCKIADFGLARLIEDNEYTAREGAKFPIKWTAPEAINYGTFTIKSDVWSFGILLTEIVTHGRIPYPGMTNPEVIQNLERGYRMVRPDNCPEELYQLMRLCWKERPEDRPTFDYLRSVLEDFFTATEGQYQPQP

[6] = Oral bioavailability in CD1 mouse at 10 mg/kg administered via gavage by LC-MS/MS analysis; assay type: ADME, organism-based; conditions: in vivo
[7] = Protein binding in mouse plasma assessed as unbound fraction at 2 uM measured after 4 hrs by LC-MS/MS analysis; assay type: ADME, cell-free
[8] = Cmax in CD1 mouse at 3 mg/kg, iv or 10 mg/kg, po administered via gavage by LC-MS/MS analysis; assay type: ADME, organism-based; conditions: in vivo
[9] = Genotoxicity in Salmonella typhimurium TA100 at 0.004 to 5 mg/ml measured after 90 mins in presence of rat S9 fraction by mini-Ames test; assay type: toxicity, subcellular; conditions: salmonella enterica subsp. enterica serovar typhimurium
[10] = Cytotoxicity against human CMEC/D3 cells assessed as cell growth at 20 uM measured after 72 hrs by cellTiter 96 AQueous non-radioactive cell proliferation assay relative to control; assay type: cell-based, hCMEC/D3; conditions: read-out: Activity
[11] = Inhibition of Toxoplasma gondii full-length wild-type C-terminal His-tagged CDPK1 expressed in Escherichia coli BL21(DE3)V2RpAcYc-LIC+LamP using syntide-2 peptide as substrate incubated for 20 to 40 mins by ELISA
[12] = Genotoxicity in Salmonella typhimurium TA100 at 0.004 to 5 mg/ml measured after 90 mins in absence of rat S9 fraction by mini-Ames test; assay type: toxicity; conditions: salmonella enterica subsp. enterica serovar typhimurium
CHO-K1 [13] = test: Genotoxicity in CHOK1 cells measured after 24 hrs in absence of Sprague-Dawley rat liver S9 fraction by Hoechst/calcein-AM staining based micronucleus test; assay type: toxicity, cell-based, Cricetulus griseus; conditions: chinese hamster, cho-k1, 24 h
[14] = Inhibition of Toxoplasma gondii full-length C-terminal His-tagged CDPK1 G128M mutant expressed in Escherichia coli BL21(DE3)V2RpAcYc-LIC+LamP using syntide-2 peptide as substrate incubated for 20 to 40 mins by ELISA
[15] = Genotoxicity in Salmonella typhimurium TA98 at 0.004 to 5 mg/ml measured after 90 mins in absence of rat S9 fraction by mini-Ames test; assay type: toxicity; conditions: salmonella enterica subsp. enterica serovar typhimurium
[16] = Cytotoxicity against human SH-SY5Y cells assessed as cell growth at 20 uM measured after 72 hrs by cellTiter 96 AQueous non-radioactive cell proliferation assay relative to control; assay type: cell-based; conditions: read-out: Activity
CHO-K1 [17] = test: Genotoxicity in CHOK1 cells measured after 3 hrs in presence of Sprague-Dawley rat liver S9 fraction by Hoechst/calcein-AM staining based micronucleus test; assay type: toxicity, cell-based, Cricetulus griseus; conditions: chinese hamster, s9, 3 h
[18] = Intrinsic clearance in human liver microsomes at 10 uM preincubated for 10 mins followed by NADPH addition by LC-MS/MS analysis; assay type: ADME, Microsome; conditions: read-out: CLH
[19] = Apparent permeability across apical to basolateral side in MDCK2-MDR1 cells at 2 uM measured after 150 mins by LC-MS/MS analysis; assay type: ADME, cell-based, Canis lupus familiaris; conditions: dog, mdck-mdr1, […]
Toxoplasma gondii = test: Antiparasitic activity against 2F clone of type 1 Toxoplasma gondii RH tachyzoites expressing beta-galactosidase infected in HFF assessed as reduction in parasite growth measured after 72 hrs by chlorophenol Red-beta-D-galactopyranoside substrate based assay; assay type: functional, organism-based
[20] = Cytotoxicity against human Caco2 cells assessed as cell growth at 20 uM measured after 72 hrs by cellTiter 96 AQueous non-radioactive cell proliferation assay relative to control; assay type: cell-based, Caco-2; conditions: read-out: Activity
[21] = Genotoxicity in Salmonella typhimurium TA98 at 0.004 to 5 mg/ml measured after 90 mins in presence of rat S9 fraction by mini-Ames test; assay type: toxicity, subcellular; conditions: salmonella enterica subsp. enterica serovar typhimurium
Cytochrome P450 1A2 = molecular target: T1, Cytochrome P450 1A2 (Homo sapiens, UniProt P05177); test: Inhibition of CYP1A2 in human liver microsomes using phenacetin as substrate measured after 10 mins by LC-MS/MS analysis; assay type: ADME
T1 sequence (P05177 whole entry): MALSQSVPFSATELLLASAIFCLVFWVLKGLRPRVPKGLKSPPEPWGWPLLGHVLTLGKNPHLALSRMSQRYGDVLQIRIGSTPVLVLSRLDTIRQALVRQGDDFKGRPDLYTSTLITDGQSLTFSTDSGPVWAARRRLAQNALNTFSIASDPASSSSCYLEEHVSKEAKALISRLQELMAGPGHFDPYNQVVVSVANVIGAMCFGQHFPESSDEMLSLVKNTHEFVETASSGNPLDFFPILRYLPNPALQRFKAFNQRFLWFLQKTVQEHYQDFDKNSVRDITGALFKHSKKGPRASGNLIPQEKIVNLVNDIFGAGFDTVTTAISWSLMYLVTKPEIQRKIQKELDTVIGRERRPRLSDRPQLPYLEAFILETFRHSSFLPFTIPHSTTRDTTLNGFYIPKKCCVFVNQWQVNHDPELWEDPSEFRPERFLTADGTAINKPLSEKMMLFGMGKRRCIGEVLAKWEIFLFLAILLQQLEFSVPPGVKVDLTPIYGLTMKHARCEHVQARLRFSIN

[22] = Cytotoxicity against MDCK cells assessed as cell growth at 20 uM measured after 72 hrs by cellTiter 96 AQueous non-radioactive cell proliferation assay relative to control; assay type: cell-based, Canis lupus familiaris; conditions: dog, read-out: Activity
[23] = Half life in CD1 mouse at 3 mg/kg, iv or 10 mg/kg, po administered via gavage by LC-MS/MS analysis; assay type: ADME, organism-based; conditions: in vivo
[24] = molecular target: Casein kinase I epsilon (CKepsilon) (Homo sapiens, UniProt P49674); test: Inhibition of recombinant human full-length His-tagged CKepsilon expressed in baculovirus expression system at 1 uM by Lanthascreen assay relative to control
Sequence of Casein kinase I epsilon (CKepsilon) (P49674 whole entry): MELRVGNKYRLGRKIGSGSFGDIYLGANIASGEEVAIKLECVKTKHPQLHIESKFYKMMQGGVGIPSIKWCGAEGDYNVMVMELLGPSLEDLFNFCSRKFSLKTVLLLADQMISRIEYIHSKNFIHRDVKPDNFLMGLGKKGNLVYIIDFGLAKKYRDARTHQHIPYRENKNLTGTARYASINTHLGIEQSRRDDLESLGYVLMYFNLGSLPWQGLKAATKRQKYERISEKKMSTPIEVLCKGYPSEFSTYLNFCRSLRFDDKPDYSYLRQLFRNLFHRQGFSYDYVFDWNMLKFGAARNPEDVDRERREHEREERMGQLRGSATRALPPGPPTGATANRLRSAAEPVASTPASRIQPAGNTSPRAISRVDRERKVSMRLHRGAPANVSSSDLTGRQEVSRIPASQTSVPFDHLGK

[25] = Cytotoxicity against HFF monolayers assessed as cell growth measured after 72 hrs by luciferase reporter gene assay relative to control; assay type: cell-based; conditions: human, read-out: Activity
[26] = AUC in CD1 mouse at 3 mg/kg, iv or 10 mg/kg, po administered via gavage by LC-MS/MS analysis; assay type: ADME, organism-based; conditions: in vivo
[27] = Half life in mouse liver microsomes at 10 uM preincubated for 10 mins followed by NADPH addition by LC-MS/MS analysis; assay type: ADME, Microsome; conditions: liver microsomes
PTK6 = PTK6 (Homo sapiens, UniProt Q13882); test: Inhibition of recombinant human full-length His-tagged PTK6 cytoplasmic domain expressed in baculovirus expression system at 1 uM using Fluorescein-Poly GT as substrate by Lanthascreen assay relative to control; conditions: probe Fluorescein-Poly GT
Sequence of PTK6 (Q13882 whole entry, the tested form may be a part): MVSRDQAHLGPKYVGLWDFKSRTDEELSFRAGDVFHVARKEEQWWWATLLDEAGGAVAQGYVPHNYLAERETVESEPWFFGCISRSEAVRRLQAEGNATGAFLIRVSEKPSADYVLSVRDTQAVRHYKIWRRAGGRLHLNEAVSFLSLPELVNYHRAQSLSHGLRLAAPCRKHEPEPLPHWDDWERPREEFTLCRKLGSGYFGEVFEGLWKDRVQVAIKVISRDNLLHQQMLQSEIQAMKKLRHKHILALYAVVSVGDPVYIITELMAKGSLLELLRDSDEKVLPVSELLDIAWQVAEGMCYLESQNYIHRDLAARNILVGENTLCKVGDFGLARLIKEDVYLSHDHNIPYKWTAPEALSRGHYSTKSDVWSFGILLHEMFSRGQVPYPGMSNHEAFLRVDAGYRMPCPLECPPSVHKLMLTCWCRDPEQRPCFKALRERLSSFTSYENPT

Sequence of Proto-oncogene tyrosine-protein kinase Src (P12931 2-536 limits assumed): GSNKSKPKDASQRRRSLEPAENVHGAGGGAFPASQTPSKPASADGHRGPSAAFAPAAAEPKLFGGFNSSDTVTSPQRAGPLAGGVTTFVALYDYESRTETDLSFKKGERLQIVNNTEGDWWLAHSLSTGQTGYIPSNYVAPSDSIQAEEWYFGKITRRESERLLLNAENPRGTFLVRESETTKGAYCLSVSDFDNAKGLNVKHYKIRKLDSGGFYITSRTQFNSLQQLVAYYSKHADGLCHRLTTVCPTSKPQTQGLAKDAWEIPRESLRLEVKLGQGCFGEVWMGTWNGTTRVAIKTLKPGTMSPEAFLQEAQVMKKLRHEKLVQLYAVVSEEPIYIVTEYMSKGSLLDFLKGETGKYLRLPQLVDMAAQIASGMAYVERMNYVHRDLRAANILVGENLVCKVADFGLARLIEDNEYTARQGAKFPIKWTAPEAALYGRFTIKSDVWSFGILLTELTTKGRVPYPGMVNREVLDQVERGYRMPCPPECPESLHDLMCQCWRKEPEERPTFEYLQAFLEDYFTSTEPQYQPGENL

N#Cc1ccnc(Oc2nn([C@H]3C[C@H](F)C3)c3ncnc(N)c23)c1
IC50 [1]: > 20000 nM | IC50 [2]: > 30000 nM | viability at 72 h, 20 µM [3]: 101% | CLH [4]: 10 µL/min/1e6 cells | half-life at 10 µM [5]: > 2.42 h | inhibition at 10 µM (LCK): 74% | bioavailability [6]: 43.1% | Fu [7]: 29.3% | Cmax [8]: 1503 ng/mL | Activity [9]: Non-Toxic | viability at 72 h, 20 µM [10]: 135% | IC50 [11]: 14.9 to 15 nM | Activity [12]: Non-Toxic | Activity (CHO-K1 [13]): > 100 µM | IC50 [14]: > 20000 nM | Activity [15]: Non-Toxic | viability at 72 h, 20 µM [16]: 103% | Activity (CHO-K1 [17]): > 100 µM | CLint scaled at 10 µM [18]: < 8.6 mL/min/kg | Papp [19]: 26.87 ×10⁻⁶ cm/s | EC50 (Toxoplasma gondii): 201 nM | viability at 72 h, 20 µM [20]: 95.5% | Activity [21]: Non-Toxic | EC50 (Cytochrome P450 1A2): 20800 nM | viability at 72 h, 20 µM [22]: 79.4% | t1/2 [23]: 1.43 h | inhibition at 1 µM [24]: > 50% | viability at 72 h [25]: 112% | AUC [26]: 3140 ng·h/mL | half-life at 10 µM [27]: > 2.42 h | inhibition at 1 µM (PTK6): > 50%

Nc1ncnc2c1c(Oc1cc(C(F)(F)F)ccn1)nn2C1CC1
IC50 [1]: > 20000 nM | IC50 [2]: > 30000 nM | viability at 72 h, 20 µM [3]: 104% | CLH [4]: < 6.4 µL/min/1e6 cells | half-life at 10 µM [5]: > 2.42 h | inhibition at 10 µM (LCK): 55% | bioavailability [6]: 83% | Fu [7]: 15.6% | Cmax [8]: 2067 ng/mL | Activity [9]: Non-Toxic | viability at 72 h, 20 µM [10]: 132% | IC50 [11]: 16 to 16.5 nM | Activity [12]: Non-Toxic | Activity (CHO-K1 [13]): > 1000 µM | IC50 [14]: > 20000 nM | Activity [15]: Non-Toxic | viability at 72 h, 20 µM [16]: 103% | Activity (CHO-K1 [17]): > 1000 µM | CLint scaled at 10 µM [18]: < 8.6 mL/min/kg | Papp [19]: 33 ×10⁻⁶ cm/s | EC50 (Toxoplasma gondii): 172 nM | viability at 72 h, 20 µM [20]: 93.3% | Activity [21]: Non-Toxic | EC50 (Cytochrome P450 1A2): 460 nM | viability at 72 h, 20 µM [22]: 97.8% | t1/2 [23]: 4.2 h | inhibition at 1 µM [24]: > 50% | viability at 72 h [25]: 106% | AUC [26]: 2677 ng·h/mL | half-life at 10 µM [27]: > 2.42 h | inhibition at 1 µM (PTK6): > 50%
